Data: BindingDB's records for doi:10.1016/j.bmc.2006.09.052 (Kirin Brewery, 2006)

Experiment: Inhibition of MCP1-induced cell migration in U937 cells expressing CCR2 by chemotaxis assay

| SMILES | IC50 |
| --- | --- |
| O=C(NCc1ccccc1)Nc1ccc2[nH]ncc2c1 [1-benzyl-3-(1H-indazol-5-yl)urea] | > 100 µM |
| c1ccc(CN2CCCC(Oc3ccc4[nH]ncc4c3)C2)cc1 (stereo unspecified) [1-benzyl-3-piperidyl-(1H-5-indazolyl)ether] | 1 µM |
| c1ccc(CN2CCC(Oc3ccc4[nH]ncc4c3)CC2)cc1 [1-benzyl-4-piperidyl-(1H-5-indazolyl)ether] | 6 µM |
| O=C(Nc1ccc2[nH]ncc2c1)C1CCCN(Cc2ccccc2)C1 (stereo unspecified) [1-benzyl-N-(1H-indazol-5-yl)piperidine-3-carboxamide] | 1 µM |
| Fc1ccc(CN2CCCC(Nc3ccc4[nH]ncc4c3)C2)cc1F (stereo unspecified) [N-(1-(3,4-difluorobenzyl)piperidin-3-yl)-1H-indazol-5-amine] | 1 µM |
| COc1cc(CN2CCCC(Nc3ccc4[nH]ncc4c3)C2)cc(OC)c1 (stereo unspecified) [N-(1-(3,5-dimethoxybenzyl)piperidin-3-yl)-1H-indazol-5-amine] | > 30 µM |
| Nc1ccc(CN2CCCC(Nc3ccc4[nH]ncc4c3)C2)cc1 (stereo unspecified) [N-(1-(4-aminobenzyl)piperidin-3-yl)-1H-indazol-5-amine] | 2 µM |
| Clc1ccc(CN2CCCC(Nc3ccc4[nH]ncc4c3)C2)cc1 (stereo unspecified) [N-(1-(4-chlorobenzyl)piperidin-3-yl)-1H-indazol-5-amine] | 1 µM |
| Fc1ccc(CN2CCCC(Nc3ccc4[nH]ncc4c3)C2)cc1 (stereo unspecified) [N-(1-(4-fluorobenzyl)piperidin-3-yl)-1H-indazol-5-amine] | 4 µM |
| COc1ccc(CN2CCCC(Nc3ccc4[nH]ncc4c3)C2)cc1 (stereo unspecified) [N-(1-(4-methoxybenzyl)piperidin-3-yl)-1H-indazol-5-amine] | 1 µM |
| Cc1ccc(CN2CCCC(Nc3ccc4[nH]ncc4c3)C2)cc1 (stereo unspecified) [N-(1-(4-methylbenzyl)piperidin-3-yl)-1H-indazol-5-amine] | 1 µM |
| O=[N+]([O-])c1ccc(CN2CCCC(Nc3ccc4[nH]ncc4c3)C2)cc1 (stereo unspecified) [N-(1-(4-nitrobenzyl)piperidin-3-yl)-1H-indazol-5-amine] | 19 µM |
| c1coc(CN2CCCC(Nc3ccc4[nH]ncc4c3)C2)c1 (stereo unspecified) [N-(1-(furan-2-ylmethyl)piperidin-3-yl)-1H-indazol-5-amine] | 5 µM |
| c1cc(CN2CCCC(Nc3ccc4[nH]ncc4c3)C2)ccn1 (stereo unspecified) [N-(1-(pyridin-4-ylmethyl)piperidin-3-yl)-1H-indazol-5-amine] | > 30 µM |
| c1csc(CN2CCCC(Nc3ccc4[nH]ncc4c3)C2)c1 (stereo unspecified) [N-(1-(thiophen-2-ylmethyl)piperidin-3-yl)-1H-indazol-5-amine] | 6 µM |
| c1cc(CN2CCCC(Nc3ccc4[nH]ncc4c3)C2)cs1 (stereo unspecified) [N-(1-(thiophen-3-ylmethyl)piperidin-3-yl)-1H-indazol-5-amine] | 1 µM |
| c1ccc(CN2CCCC(Nc3ccc4[nH]ncc4c3)C2)cc1 (stereo unspecified) [N-(1-benzylpiperidin-3-yl)-1H-indazol-5-amine] | 2 µM |
| c1ccc(CN2CCC(Nc3ccc4[nH]ncc4c3)CC2)cc1 [N-(1-benzylpiperidin-4-yl)-1H-indazol-5-amine] | 30 µM |
| c1ccc(CN2CCC(Nc3ccc4[nH]ncc4c3)C2)cc1 (stereo unspecified) [N-(1-benzylpyrrolidin-3-yl)-1H-indazol-5-amine] | 10 µM |

Further lines, results first:

| IC50 | SMILES |
| --- | --- |
| > 100 µM | O=C(NCc1ccc(Cl)cc1Cl)Nc1ccc2[nH]ncc2c1 [N-(2,4-dichlorobenzyl)-N0-(1H-5-indazolyl)urea] |
| > 100 µM | O=C(NCc1c(F)cccc1F)Nc1ccc2[nH]ncc2c1 [N-(2,6-difluorobenzyl)-N0-(1H-5-indazolyl)urea] |
| 10 µM | c1c[nH]c(CN2CCCC(Nc3ccc4[nH]ncc4c3)C2)c1 (stereo unspecified) [N-[1-(1H-2-pyrrolylmethyl)-3-piperidyl]-N-(1H-5-indazolyl)amine] |
| 1 µM | Nc1ccccc1CN1CCCC(Nc2ccc3[nH]ncc3c2)C1 (stereo unspecified) [N-[1-(2-aminobenzyl)-3-piperidyl]-N-(1H-5-indazolyl)amine] |
| 8 µM | Clc1ccccc1CN1CCCC(Nc2ccc3[nH]ncc3c2)C1 (stereo unspecified) [N-[1-(2-chlorobenzyl)-3-piperidyl]-N-(1H-5-indazolyl)amine] |
| 7 µM | Clc1ccccc1CN1CCC(Nc2ccc3[nH]ncc3c2)C1 (stereo unspecified) [N-[1-(2-chlorobenzyl)-3-pyrrolidyl]-N-(1H-5-indazolyl)amine] |
| 3 µM | Nc1cccc(CN2CCCC(Nc3ccc4[nH]ncc4c3)C2)c1 (stereo unspecified) [N-[1-(3-aminobenzyl)-3-piperidyl]-N-(1H-5-indazolyl)amine] |
| 8 µM | Clc1cccc(CN2CCCC(Nc3ccc4[nH]ncc4c3)C2)c1 (stereo unspecified) [N-[1-(3-chlorobenzyl)-3-piperidyl]-N-(1H-5-indazolyl)amine] |
| 5 µM | Clc1cccc(CN2CCC(Nc3ccc4[nH]ncc4c3)C2)c1 (stereo unspecified) [N-[1-(3-chlorobenzyl)-3-pyrrolidyl]-N-(1H-5-indazolyl)amine] |
| 19 µM | O=[N+]([O-])c1cccc(CN2CCCC(Nc3ccc4[nH]ncc4c3)C2)c1 (stereo unspecified) [N-[1-(3-nitrobenzyl)-3-piperidyl]-N-(1H-5-indazolyl)amine] |
| 20 µM | c1cncc(CN2CCCC(Nc3ccc4[nH]ncc4c3)C2)c1 (stereo unspecified) [N-[1-(3-pyridylmethyl)-3-piperidyl]-N-(1H-5-indazolyl)amine] |
| 1 µM | Clc1ccc(CN2CCC(Nc3ccc4[nH]ncc4c3)C2)cc1 (stereo unspecified) [N-[1-(4-chlorobenzyl)-3-pyrrolidyl]-N-(1H-5-indazolyl)amine] |
